The source of these data is patent US11639412B2, “Acute care cover for severe injuries” (priority 2016, dated 2023).

The assay concerns Staphylococcus aureus. Put plainly: Zone of inhibition assay. The format is cell-based. The note with it: 37° C. for 72 hours. The procedure: Zone-of-inhibition and Drug Delivery Assay—Antimicrobial activity of ciprofloxacin- and tetracycline-loaded polyHIPEs was assessed through a zone of inhibition assay. […] The polyHIPE discs were incubated in the drug solutions at room temperature overnight. Prior to being frozen and lyophilized, the discs were briefly rinsed with methanol. A plate of Staphylococcus aureus was streaked using cells from frozen stocks; single colonies, selected from the plate, were then used to inoculate 10 mL of liquid LB media, which were cultured overnight at 37° C. The starter cultures were diluted with fresh LB to an OD600 of approximately 1.1 before being further diluted in 1:5 ratio of culture to fresh, liquid LB media. To inoculate LB agar plates, 250 μL of the diluted culture was spread evenly across the surface of the plates, which were then incubated for 30 minutes at 37° C. The LB plates were then removed from the incubator and divided into 4 quadrants with the drug-loaded or control polyHIPE discs placed in the center of each quadrant. The plates were then returned to the incubator and cultured for approximately 24 hours. Following the 24-hour period of incubation, the plates were removed, photographed next to a standard ruler and the polyHIPEs transferred to a freshly inoculated plate which was incubated for another 24 hours. […]

SMILES strings stand for the structures.

On to `O=C(O)c1cn(C2CC2)c2cc(N3CCNCC3)c(F)cc2c1=O` [ciprofloxacin], for which the “antibiotic activity within polyHIPEs after incubation” value is on record as “not diminished”.
